# From patent US7150974B1, “Parathyroid hormone receptor binding method” (The General Hospital Corporation, priority 1991, dated 2006)
# “Also recorded” adds a separate entry of the source.
# Experiments:
# [1] = target: T1, rat bone PTH/PTHrP receptor (Rattus norvegicus, UniProt P25961, E586G); assay: Radioreceptor assay, COS cells expressing rat bone PTH/PTHrP receptor (R15B); type: binding
# T1 construct: expressed in transfected cells; host or cells: COS / COS-7 cells, transient, plasmid R15B (pcDNA I)
# T1 sequence (P25961 27-591 E586G): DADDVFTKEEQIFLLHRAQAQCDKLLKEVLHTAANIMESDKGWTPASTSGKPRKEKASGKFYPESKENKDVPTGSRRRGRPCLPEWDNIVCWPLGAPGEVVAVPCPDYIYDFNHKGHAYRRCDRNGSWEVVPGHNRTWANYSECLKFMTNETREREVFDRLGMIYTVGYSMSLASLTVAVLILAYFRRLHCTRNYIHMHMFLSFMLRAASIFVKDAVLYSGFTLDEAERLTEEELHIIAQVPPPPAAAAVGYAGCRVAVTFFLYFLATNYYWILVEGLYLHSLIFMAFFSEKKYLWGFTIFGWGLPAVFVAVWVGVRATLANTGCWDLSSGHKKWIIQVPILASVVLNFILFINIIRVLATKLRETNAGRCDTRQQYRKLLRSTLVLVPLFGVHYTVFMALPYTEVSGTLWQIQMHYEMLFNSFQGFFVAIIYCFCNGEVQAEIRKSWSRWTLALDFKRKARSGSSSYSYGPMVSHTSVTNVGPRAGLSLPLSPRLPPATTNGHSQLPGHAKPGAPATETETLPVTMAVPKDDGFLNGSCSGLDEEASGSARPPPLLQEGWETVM
# Experimental: (§1) In brief, the labeled peptide was dissolved in 0.1% trifluoracetic acid (TFA), applied to a C18 Sep-pak cartridge (Waters Associates, Inc., Milford, Mass.) and eluted with a solution of 60% acetonitrile in 0.1% TFA. After lyophilization, the radioligand then was applied to C18-μBondapak column (3.9 mm×30 cm. Waters Associates) and eluted over 30 min with a linear gradient of 30-50% acetonitrile-0.1% TFA at a flow rate of 2 ml/min.
# (§2) COS-7 cells were grown in 15 cm plates in DMEM, 10% heat-inactivated […], 10 mg/L gentamycin until 80-90% confluent. Twenty-four hours after transfection by the DEAE/Dextran method (Sambrook et al., supra), with 1-2 μg of plasmid DNA, the cells were trypsinized and replated in multiwell plastic dishes (16 or 35 mm diameter, Costar, Cambridge, Mass.) at a cell concentration of 5×10^4 cells/cm^2). […] After continuing culture for another 48 h, radiorecepter assays were performed. The culture medium was replaced with buffer containing 50 mM Tris-HCL (pH 7.7), 100 mM NaCl, 2 mM CaCl2, 5 mM KCL, 0.5% heat-inactivated fetal bovine serum (GIBCO), and 5% heat-inactivated horse serum (KC Biological Inc., Lenexa, Kans.) immediately before studies were initiated.
# (§3) Incubations were terminated by aspirating the buffer, and repeatedly (×3) washing the culture dishes, containing the adherent cells with chilled 0.9% NaCl solution, over a 15 sec period. Cell-bound radioactivity was recovered by the sequential addition (×3) of 1 N NaOH (200 μl) to each well. After 30 min at room temperature, the NaOH was transferred to a glass tube. A second and third extraction with 1 N NaOH (200 μl) were combined with the first, and the total radioactivity was counted in a γ-spectrometer (Packard Instruments, Downers Grove, Ill.).
# [2] = target: T2, opossum kidney PTH/PTHrP receptor clone, OK-H (Didelphis virginiana, UniProt P25107, I132F/S86P); assay: Radioreceptor assay, COS cells expressing OK-H; type: binding; conditions: FIG. 9
# T2 construct: expressed in transfected cells; host or cells: COS cells, transient, plasmid OK-H (pcDNA I)
# Experimental: as §1, §2, §3
# [3] = target: T2, opossum kidney PTH/PTHrP receptor clone, OK-H; assay: Inositol phosphate metabolism, COS cells expressing OK-H; type: cell-based; conditions: FIG. 15, listed as NlePTH
# [4] = target: T3, opossum kidney PTH/PTHrp receptor clone, OK-O (Didelphis virginiana, UniProt P25107, I132F/S86P); assay: Inositol phosphate metabolism, COS cells expressing OK-O; type: cell-based; conditions: FIG. 15, listed as NlePTH
# T3 construct: expressed in transfected cells; host or cells: COS cells, transient, plasmid OK-O (pcDNA I)
# [5] = target: T1, rat bone PTH/PTHrP receptor; assay: Inositol phosphate metabolism, COS cells expressing R15B; type: cell-based; conditions: FIG. 15
# [6] = target: T1, rat bone PTH/PTHrP receptor; assay: cAMP accumulation, COS cells expressing R15B; type: cell-based
# Experimental: Intracellular cAMP accumulation was measured as described previously (Abou-Samra et al., J. Biol. Chem. 262:1129, 1986). Cells in 24-well plates were rinsed with culture medium containing 0.1% BSA and 2 mM IBMX. […] The supernatant was removed and the cells immediately frozen by placing the whole plate in dry ice powder. Intracellular cAMP was extracted by thawing the cells in 1 ml of 50 mM HCl and analyzed by a specific radioimmunoassay using an anti-cAMP antibody (e.g., Sigma, St. Louis, Mo.). A cAMP analog (2′-O-monosuccinyl-adenosine 3′:5′-cyclic monophosphate tyrosyl methyl ester, obtained from Sigma) which was used a tracer for cAMP was iodinated by the chloramine T method. Free iodine was removed by adsorbing the iodinated cAMP analog onto a C18 Sep-pak cartridge (Waters, Milford, Mass.). After washing with dH2O, the iodinated cAMP analog was eluted from the Sep-pak Cartridge with 40% acetonitrille (ACN) and 0.1% trifluoroacetic acid (TFA). The iodinated cAMP analog was lyophilized, reconstituted in 1 ml 0.1% TFA, and injected into a C18 reverse phase HPLC column (Waters). The column was equilibrated with 10% ACN in 0.1% TFA, and eluted with gradient of 10-30% ACN in 0.1% TFA. This allows separation of the mono-iodinated cAMP analog from the non-iodinated cAMP analog. […] The standard used for the assay, adenosine 3′:5′-cyclic monophosphate, was purchased from Sigma. […]
# T2 sequence (P25107 other isoform, or with tags, fused parts or gaps S86P/I132F): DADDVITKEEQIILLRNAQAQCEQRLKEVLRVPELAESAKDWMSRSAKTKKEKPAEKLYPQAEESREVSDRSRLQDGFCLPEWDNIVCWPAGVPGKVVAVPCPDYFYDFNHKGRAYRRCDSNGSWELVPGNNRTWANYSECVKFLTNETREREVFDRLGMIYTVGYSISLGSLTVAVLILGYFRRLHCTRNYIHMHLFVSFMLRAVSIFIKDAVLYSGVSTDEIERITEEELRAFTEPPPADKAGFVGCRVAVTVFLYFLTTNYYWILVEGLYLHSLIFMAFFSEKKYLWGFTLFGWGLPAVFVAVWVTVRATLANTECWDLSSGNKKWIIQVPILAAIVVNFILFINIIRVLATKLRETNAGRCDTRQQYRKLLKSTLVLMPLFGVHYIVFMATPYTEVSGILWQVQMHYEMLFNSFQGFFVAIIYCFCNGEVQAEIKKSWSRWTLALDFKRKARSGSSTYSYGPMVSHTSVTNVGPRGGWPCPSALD
# T3 sequence (P25107 27-585 S86P/I132F): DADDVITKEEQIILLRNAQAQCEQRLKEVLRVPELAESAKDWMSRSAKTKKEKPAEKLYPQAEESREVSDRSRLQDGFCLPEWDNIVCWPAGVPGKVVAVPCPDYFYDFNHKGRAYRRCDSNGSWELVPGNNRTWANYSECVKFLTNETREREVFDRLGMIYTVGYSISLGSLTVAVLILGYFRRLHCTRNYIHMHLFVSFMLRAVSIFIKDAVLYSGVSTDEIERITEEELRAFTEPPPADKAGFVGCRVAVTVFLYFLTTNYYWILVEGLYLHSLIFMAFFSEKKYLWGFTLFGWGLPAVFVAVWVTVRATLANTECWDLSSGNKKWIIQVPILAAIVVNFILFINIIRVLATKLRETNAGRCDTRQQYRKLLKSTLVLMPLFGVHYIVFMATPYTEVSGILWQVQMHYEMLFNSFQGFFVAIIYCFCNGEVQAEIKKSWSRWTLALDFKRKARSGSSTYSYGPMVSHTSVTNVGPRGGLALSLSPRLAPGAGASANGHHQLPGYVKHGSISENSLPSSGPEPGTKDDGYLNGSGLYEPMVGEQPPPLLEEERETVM
substance,measurement,setting,value
"[Nle^8,18, Tyr^34]bPTH(1-34)amide",inhibition of 125I-PTHrP binding by competitor,"[1]; COS cells expressing R15B, FIG. 13",inhibited
same,specific binding of radiolabelled ligand,"[1]; radiolabelled ligand ~200,000 cpm, COS-7 cells expressing R15B",8.1 ± 3.5%
same,inhibition of 125I-PTHrP binding by competitor,[2],inhibited
same,inositol phosphate metabolism (IP3 and IP2 accumulation),[3],do not show a detectable increase; also recorded: did not show any detectable increase
same,inositol phosphate metabolism (IP3 and IP2 accumulation),[4],rapid increase
same,inositol phosphate metabolism (IP3 and IP2 accumulation),[5],rapid increase
same,cAMP accumulation,"[6]; COS cells expressing R15B, FIG. 16",increase cAMP accumulation
same,"cAMP accumulation, PTH(1-34) compared with PTHrP(1-36)",[6]; COS-7 cells expressing rat receptor,to the same extent
